Molecules are shown by their SMILES. Residues, ends and D or L forms follow the SMILES beside them.

h-mT1R2-EX5/T1R3mosaicA, sequence (Q8TE23 with tags, fused parts or gaps with the stated changes limits assumed): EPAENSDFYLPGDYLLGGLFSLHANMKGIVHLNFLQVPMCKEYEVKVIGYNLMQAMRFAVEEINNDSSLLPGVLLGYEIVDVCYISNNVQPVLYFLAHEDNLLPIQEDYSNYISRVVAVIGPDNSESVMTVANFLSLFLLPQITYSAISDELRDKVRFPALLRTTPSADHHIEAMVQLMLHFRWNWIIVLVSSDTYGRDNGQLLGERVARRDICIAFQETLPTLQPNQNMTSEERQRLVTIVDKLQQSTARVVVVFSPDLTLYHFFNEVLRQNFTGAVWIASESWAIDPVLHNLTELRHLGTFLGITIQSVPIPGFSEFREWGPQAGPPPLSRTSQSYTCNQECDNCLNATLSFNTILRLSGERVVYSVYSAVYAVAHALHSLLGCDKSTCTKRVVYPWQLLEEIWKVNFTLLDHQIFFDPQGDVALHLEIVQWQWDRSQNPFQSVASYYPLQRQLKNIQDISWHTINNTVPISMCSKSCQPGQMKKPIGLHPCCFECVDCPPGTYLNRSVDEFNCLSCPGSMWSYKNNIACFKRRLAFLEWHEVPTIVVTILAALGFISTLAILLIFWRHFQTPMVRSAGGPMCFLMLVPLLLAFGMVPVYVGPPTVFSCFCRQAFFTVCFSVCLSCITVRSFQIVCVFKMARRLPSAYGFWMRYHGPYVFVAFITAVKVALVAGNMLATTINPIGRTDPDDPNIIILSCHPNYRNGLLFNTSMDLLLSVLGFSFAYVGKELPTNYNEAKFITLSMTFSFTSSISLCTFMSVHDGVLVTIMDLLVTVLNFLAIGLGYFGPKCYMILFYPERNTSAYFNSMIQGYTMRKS
h-mT1R2-EX5/T1R3mosaicA, sequence (Q925D8 with tags, fused parts or gaps with the stated changes limits assumed): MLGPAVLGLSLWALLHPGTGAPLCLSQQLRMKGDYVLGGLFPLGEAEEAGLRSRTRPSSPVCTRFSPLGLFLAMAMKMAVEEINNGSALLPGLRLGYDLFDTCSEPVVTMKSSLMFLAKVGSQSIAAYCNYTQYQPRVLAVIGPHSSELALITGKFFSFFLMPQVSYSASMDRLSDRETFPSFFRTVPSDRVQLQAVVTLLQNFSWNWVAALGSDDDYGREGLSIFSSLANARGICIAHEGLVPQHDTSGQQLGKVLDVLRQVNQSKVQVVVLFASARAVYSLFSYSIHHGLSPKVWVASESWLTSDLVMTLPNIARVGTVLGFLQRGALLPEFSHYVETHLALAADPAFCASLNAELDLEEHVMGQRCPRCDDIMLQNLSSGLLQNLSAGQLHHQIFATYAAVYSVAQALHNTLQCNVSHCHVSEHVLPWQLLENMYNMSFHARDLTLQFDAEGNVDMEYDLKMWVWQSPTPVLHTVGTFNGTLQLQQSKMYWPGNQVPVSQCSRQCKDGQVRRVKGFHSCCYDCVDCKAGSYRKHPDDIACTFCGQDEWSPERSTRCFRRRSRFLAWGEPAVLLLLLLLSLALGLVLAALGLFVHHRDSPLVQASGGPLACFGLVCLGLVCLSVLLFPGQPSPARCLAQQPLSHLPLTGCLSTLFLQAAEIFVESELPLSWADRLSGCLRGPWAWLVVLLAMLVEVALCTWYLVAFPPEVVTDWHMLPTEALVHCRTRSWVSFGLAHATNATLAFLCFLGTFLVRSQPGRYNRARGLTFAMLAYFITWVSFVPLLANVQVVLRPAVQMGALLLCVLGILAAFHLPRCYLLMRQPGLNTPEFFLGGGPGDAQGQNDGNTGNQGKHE

The assay concerns the target h-mT1R2-EX5/T1R3mosaicA (UniProt Q8TE23+Q925D8, A12W/A31M/A537S/A558R/A564V/A568V/A570T/A588V/A645S/A649T/A658V/A698V/A702T/A782V/A793V/A807V/C582S/C678S/E16H/E530V/E534N/E542M/E548N/E725V/F14L/F29L/F525Y/F541I/F612A/F622V/F665L/F695L/G696N/G701T/H528R/H728R/I36V/I490V/I510L/I518V/I595M/I60P/I617V/I643V/I645L/I692L/I695G/I706V/I740A/I803L/K30R/K504M/K555R/K565R/K626T/K714N/K818R/K827G/L17P/L521P/L560F/L571I/L578I/L610P/L631F/L636F/L639V/L684P/L688V/L702I/L734M/L735F/L800F/L823M/L825Q/M19T/M492I/M616G/M644L/M682V/M690V/M744T/M748V/N52R/N540G/N541S/N547G/N58S/N63T/N675D/N721H/P545F/P561R/P564S/P61V/P638T/P824S/Q32K/Q536L/Q53S/Q546K/Q550E/Q555R/Q56R/Q611L/Q676H/Q757R/Q795R/Q831P/R498S/R632Q/R667S/S22P/S45E/S501P/S547N/S550A/S576L/S595F/S610P/S628F/S635P/S637R/S663R/S670G/S679G/S681F/S703N/S717H/S727G/S784D/S804G/T46A/T50G/T529S/T542A/T549I/T609V/T629S/T642S/T663I/T694M/T705I/T706G/T716I/T813A/V508I/V512P/V557A/V573A/V584A/V585L/V613L/V617M/V673M/V687A/V691A/V694A/V718L/V718M/V723A/V729T/V738A/V741L/V774I/V791M/V805L/V812A/V821L/W599R/W676R/W824R/Y533F/Y615F/Y671F/Y680C/Y769S/Y783H/Y794L). To be noted: Table 4; genes h-mTEX5/T3mA (h-mT1R2-EX5, T1R3mA); HEK293E cells.
As for `CC1=CC(=O)NS(=O)(=O)O1` [Acesulfame K, acesulfame potassium], the S/N is recorded as 5.1.

For the molecule `COC(=O)[C@H](Cc1ccccc1)NC(=O)[C@H](CC(=O)O)NCCCc1ccc(OC)c(O)c1` [Advantame, advantame], the S/N was 9.4.

`COC(=O)[C@H](Cc1ccccc1)NC(=O)[C@@H](N)CC(=O)O` [Aspartame, aspartame] (HELM PEPTIDE1{D.F.[CO[*:1]]}$$$$V2.0) gave a S/N of 7.6.

In turn, `COC(=O)[C@H](Cc1ccccc1)NC(=O)[C@H](CC(=O)O)NCCC(C)(C)C` [Neotame, neotame] registered a S/N of 7.5.

The molecule `C[C@H](NC(=Nc1ccc(C#N)cc1)NCC(=O)O)c1ccccc1` [SC-45647, [3-[(S)-1-phenylethyl]-2-(4-cyanophenyl)guanidino]acetic acid] gave a S/N of 7.3.

`O=C1NS(=O)(=O)c2ccccc21.[Na]` [Saccharin Na, sodium saccharin] came in with a S/N of 4.6.

For the molecule `OC[C@H]1O[C@H](O[C@]2(CCl)O[C@H](CCl)[C@@H](O)[C@@H]2O)[C@H](O)[C@@H](O)[C@H]1Cl` [Sucralose, sucralose], the S/N stood at 7.4.

`OC[C@H]1O[C@@](CO)(O[C@H]2O[C@H](CO)[C@@H](O)[C@H](O)[C@H]2O)[C@@H](O)[C@@H]1O` [Sucrose, sucrose] yielded a S/N of 3.5.

These data come from patent US9341616B2, “Sweet taste receptor chimeric proteins and use thereof” (AJINOMOTO CO., INC., priority 2014, dated 2016).
